According to US9255107B2 (NANJING SANHOME PHARMACEUTICAL CO., LTD., priority 2012, dated 2016):

Columns and labels:
[1] = system: MEG-01 human megakaryocyte leukemia cells; test: CellTiter-Glo cell viability assay, Bcr-Abl-positive cells; settings: MEG-01, 72 h, read-out: IC50 MEG-01
Procedure: (§7) The resulting solutions were 10-fold serially diluted and formulated into 10 concentrations.
(§8) MEG-01 human megakaryocyte leukemia cells and KU812 human peripheral blood basophilic leukocytes, purchased from ATCC Company, USA.
(§9) The peripheral wells were filled with sterile PBS;
(§10) 2) Adding 10 μl of 5× concentration gradient of the tested compound, and adding 10 μl medium containing 0.5% DMSO into the blank control wells, in which the concentration of DMSO was 0.1%;
(§11) 3) Incubating the cells in a 37° C./5% CO2 incubator;
(§12) 4) Adding 30 μl Cell Titer-Glo® Reagent 72 hours after adding the compound;
(§13) 5) Incubating in a 37° C./5% CO2 incubator for 10 minutes; and centrifuging at low speed and then measuring chemiluminescence values on a PHERAstar microplate reader.
(§14) 6) Calculating cell viability (Cell Viability=(RLUsample/RLUnegative)×100%, wherein RLUsample was RLU (Relative Light Units) value of the well added with the compound and RLUnegative was RLU value of the well without the compound (i.e., cell control, which was treated with the same concentration of DMSO)). Data were processed by using a four-parameter logistic fitting module in Graphpad Prism 4.0 software to calculate IC50.

[2] = system: KU812 human peripheral blood basophilic leukocytes; test: as above; settings: KU812, 72 h, read-out: IC50 KU812
Procedure: as §7, §8, §9, §10, §11, §12, §13, §14

[3] = system: Saos-2 human osteosarcoma cells; test: MTT assay, in vitro inhibitory activity on cells; type: cell-based; settings: typically 48 hours
From the text: (§1) In this example, MTT assay was used to detect in vitro inhibitory activity of the compounds prepared according to the above examples on the cells.
(§2) Dimethyl sulfoxide (DMSO) is capable of dissolving formazan in cells, and absorbance value can be measured at a wavelength of 490 nm by an enzyme-linked immunometric meter, which reflects the number of living cells. Within a certain range of the number of cells, the amount of MTT crystals formed is proportional to the number of living cells.
(§3) 2. Culturing in a 37° C., 5% CO2 incubator and keeping the cells adhering to the walls of the wells.
(§4) 4. Carefully removing the supernatant, gently washing with PBS and discarding the supernatant again.
(§5) 6. Terminating culturing and carefully discarding the medium in each well. 7. Adding 150 μl dimethyl sulfoxide into each well, shaking for 10 minutes at low speed in a shaker, to make crystals fully dissolved.
(§6) 8. Measuring the absorbance of each well at 490 nm by an enzyme-linked immunometric meter.

[4] = system: Ovcar-3 human ovarian cancer cells; test: MTT assay, in vitro inhibitory activity on cells; type: cell-based; settings: typically 48 hours
From the text: as §1, §2, §3, §4, §5, §6

[5] = system: K562 leukemia cells; test: MTT assay, in vitro inhibitory activity on cells; type: cell-based; settings: Homo sapiens, typically 48 hours, read-out: IC50 K562 Chronic myelogenous leukemia cells
From the text: as §1, §2, §3, §4, §5, §6

[6] = system: MDA-MB-231 human breast cancer cells; test: MTT assay, in vitro inhibitory activity on cells; type: cell-based; settings: typically 48 hours
From the text: as §1, §2, §3, §4, §5, §6

[7] = biological target: Human ABL1 (T315I) (Homo sapiens (Human), UniProt P00519, T315I); test: ABL1 (T315I) kinase activity assay ([γ-33P] ATP, Abltide); type: biochemical; settings: 1.0 μM ATP, 5.0 μM Abltide, 120 minutes
Procedure: In the experimental example, the compounds prepared according the examples of the present invention were tested for the ability to inhibit ABL (T315I) kinase activity. […] Kinase activity was determined according to the manufacturer's instructions. Peptide substrate is Abltide ([…]), purchased from Millipore Corporation, USA. Ion exchange chromatography paper P81 (ion exchange filter paper) was purchased from Whatman Company, UK. [γ-33P] ATP was purchased from Perkin Elmer Company. […] [γ-33P] ATP was added at room temperature, with final concentration of 1.0 μM, and the reaction was performed for 120 minutes. 20 μl aliquots were transferred onto the ion exchange chromatography paper P81. […] Finally, γ-33P radioactivity was measured.

IC50 [1] [nM] | IC50 [5] [nM] | IC50 [6] [nM] | IC50 [7] [nM] | SMILES | IC50 [2] [nM] | IC50 [3] [nM] | IC50 [4] [nM]
3.28 | 13500 | 1060 |  | Cc1ccc(C(=O)Nc2ccc(CN3CCN(C)CC3)c(C(F)(F)F)c2)cc1C#Cc1ccn2nc(N)nc2c1 [Example 4, 3-((2-amino-[1,2,4]triazolo[1,5-a]pyridin-7-yl)ethynyl)-4-methyl-N-[4-((4-methylpiperazin-1-yl)methyl)-3-trifluoromethylphenyl]benzamide] | 0.789 |  | 
1.76 | 6790 | 2150 | 2.28 | CNc1nc2cc(C#Cc3cc(C(=O)Nc4ccc(CN5CCN(C)CC5)c(C(F)(F)F)c4)ccc3C)ccn2n1 [Example 5, 3-((2-methylamino-[1,2,4]triazolo[1,5-a]pyridin-7-yl)ethynyl)-4-methyl-N-[4-((4-methylpiperazin-1-yl)methyl)-3-trifluoromethylphenyl]benzamide] | 0.633 |  | 
 | 4160 |  | 39.4 | Cc1ccc(C(=O)Nc2ccc(CN3CCN(C)CC3)c(C(F)(F)F)c2)cc1C#Cc1ccn2nc(N(C)C)nc2c1 [Example 6, 3-((2-dimethylamino-[1,2,4]triazolo[1,5-a]pyridin-7-yl)ethynyl)-4-methyl-N-[4-((4-methylpiperazin-1-yl)methyl)-3-trifluoromethylphenyl]benzamide] |  |  | 
 | 330 | 5080 | 6.45 | Cc1ccc(C(=O)Nc2ccc(CN3CCN(C)CC3)c(C(F)(F)F)c2)cc1C#Cc1cn(C)c(-c2ncc(C(F)(F)F)[nH]2)n1 [Example 9, 4-methyl-3-((1-methyl-5′-trifluoromethyl-1H,1′H-[2,2′-diimidazol]-4-yl)ethynyl)-N-[4-((4-methylpiperazin-1-yl)methyl)-3-trifluoromethylphenyl]benzamide] |  | 1160 | 6500
 | 1430 |  | 57.9 | Cc1ccc(C(=O)Nc2ccc(CN3CCN(C)CC3)c(C(F)(F)F)c2)cc1C#Cc1ccc(-c2ncc(C(F)(F)F)[nH]2)nc1 [Example 18, 4-methyl-3-((2-(5-trifluoromethyl-1H-imidazol-2-yl)pyridin-5-yl)ethynyl)-N-[4-((4-methylpiperazin-1-yl)methyl)-3-trifluoromethylphenyl]benzamide] |  |  | 
 | 4520 | 3010 | 6.81 | Cc1ccc(C(=O)Nc2ccc(CN3CCN(C)CC3)c(C(F)(F)F)c2)cc1C#Cc1ccc(-c2ncc[nH]2)nc1 [Example 19, 4-methyl-3-((2-(1H-imidazol-2-yl)pyridin-5-yl)ethynyl)-N-[4-((4-methylpiperazin-1-yl)methyl)-3-trifluoromethylphenyl]benzamide] |  |  | 

SMILES | IC50 [1] [nM] | IC50 [5] [nM] | IC50 [6] [nM] | IC50 [7] [nM] | IC50 [2] [nM] | IC50 [3] [nM] | IC50 [4] [nM]
Cc1ccc(C(=O)Nc2ccc(CN3CCN(C)CC3)c(C(F)(F)F)c2)cc1C#Cc1cnc2[nH]ccc2n1 [Example 3] | 1.38 | 6330 | 180 | 2.12 | 0.395 | 380 | 2850
